Converted amounts (≈) assume the structure as drawn.
Assays:
[1] = biological target: T1, Dipeptidase 1 (Sus scrofa) (UniProt P22412); experiment: Relative rate of hydrolysis of porcine renal dehydropeptidase-I (DHP-I) to imipenem; format: functional
T1 sequence (whole entry): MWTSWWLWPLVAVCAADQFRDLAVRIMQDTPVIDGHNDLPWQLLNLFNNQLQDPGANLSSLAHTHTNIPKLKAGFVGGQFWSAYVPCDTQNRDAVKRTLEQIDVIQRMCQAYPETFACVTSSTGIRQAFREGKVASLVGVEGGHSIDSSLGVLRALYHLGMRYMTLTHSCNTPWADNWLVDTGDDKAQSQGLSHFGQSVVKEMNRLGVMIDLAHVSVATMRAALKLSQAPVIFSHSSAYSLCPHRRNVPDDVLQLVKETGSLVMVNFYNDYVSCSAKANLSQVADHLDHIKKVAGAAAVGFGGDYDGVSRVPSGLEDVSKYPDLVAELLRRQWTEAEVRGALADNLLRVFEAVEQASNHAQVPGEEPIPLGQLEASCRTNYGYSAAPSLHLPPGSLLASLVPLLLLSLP

[2] = system: Enterococcus faecalis; experiment: In vitro antibacterial activity against Enterococcus faecalis MB4996 organism; format: functional
[3] = system: Escherichia coli; experiment: In vitro antibacterial activity against Escherichia coli NIHJ JC2 organism; format: functional
[4] = system: Pseudomonas aeruginosa; experiment: In vitro antibacterial activity against Pseudomonas aeruginosa MB5002 organism; format: functional
[5] = system: Staphylococcus epidermidis; experiment: In vitro antibacterial activity against Staphylococcus epidermidis MB5181a organism; format: functional; settings: Staphylococcus epidermidis; read-out: MIC
[6] = system: Staphylococcus aureus; experiment: In vitro antibacterial activity against staphylococcus aureus 209P NIHJ JC1 organism; format: functional
[7] = system: Staphylococcus aureus; experiment: In vitro antibacterial activity against staphylococcus aureus BB6294 organism (Methicillin-resistant strain); format: functional
[8] = system: Staphylococcus aureus; experiment: In vitro antibacterial activity against staphylococcus aureus CSa1009 (Methicillin-resistant strain and b beta-Lactamase producing strain); format: functional
[9] = Compound was measured for binding rate for human serum at a carbapenem concentration of 10 ug/mL; format: ADME; settings: read-out: Protein binding (converted)
[10] = biological target: T1, Dipeptidase 1 (Sus scrofa); experiment: Compound was measured for DHP-I susceptibility; format: functional
[11] = organism: Mus musculus; experiment: Compound was measured for binding rate for mouse serum at a carbapenem concentration of 10 ug/mL; format: functional
[12] = PBP-2'' affinity was determined by the competition assay with [14C]benzylpenicillin using membrane isolated from MRSA BB6294 strain; format: functional, Staphylococcus aureus
[13] = system: Rattus norvegicus; experiment: Epileptogenicity of compound was measured at 100 ug/rat head by the rat intraventricular assay; 0/5; format: functional, Cerebral ventricle
[14] = system: Staphylococcus aureus; experiment: Compound was tested in vivo for its anti-methicillin-resistant staphylococcus aureus(MRSA); format: functional
[15] = system: Staphylococcus aureus; experiment: Compound was tested in vitro for its anti-methicillin-resistant staphylococcus aureus(MRSA); 3.13-6.25; format: functional

SMILES | DHP-I susceptibility [1] | MIC [2] [µg/mL] | MIC [3] [µg/mL] | MIC [4] [µg/mL] | MIC [5] [µg/mL] | MIC [6] [µg/mL] | MIC [7] [µg/mL] | MIC [8] [µg/mL] | fraction unbound at 10 ug/mL [9] | DHP-I susceptibility [10] | PPB [11] [%] | IC50 [12] [µg/mL] | Epileptogenicity [13] | ED50 [14] [mg/kg] | MIC [15] [µg/mL]
C[C@@H](O)[C@H]1C(=O)N2C(C(=O)O)=C(SC(=S)N3CCC(O)C3)[C@H](C)[C@H]12 (stereo partly specified) | 2.21 | 6.25 (≈ 16.8 µM) | 0.78 (≈ 2.09 µM) | > 25 | 3.13 (≈ 8.4 µM) | 0.025 (≈ 0.0671 µM) | 6.25 (≈ 16.8 µM) | 6.25 (≈ 16.8 µM) | – | – | – | – | – | – | –
C[C@@H](O)[C@H]1C(=O)N2C(C(=O)O)=C(SC(=S)N3CCCCC3)[C@H](C)[C@H]12 | 3.1 | 6.25 (≈ 16.9 µM) | 25 (≈ 67.5 µM) | > 25 | 3.13 (≈ 8.45 µM) | 0.025 (≈ 0.0675 µM) | 1.56 (≈ 4.21 µM) | 3.13 (≈ 8.45 µM) | – | – | – | – | – | – | –
C[C@@H](O)[C@H]1C(=O)N2C(C(=O)O)=C(SC(=S)N(C)C)[C@H](C)[C@H]12 | 2.12 | 12.5 (≈ 37.8 µM) | 6.25 (≈ 18.9 µM) | 25 (≈ 75.7 µM) | 6.25 (≈ 18.9 µM) | 0.012 (≈ 0.0363 µM) | 3.13 (≈ 9.47 µM) | 6.25 (≈ 18.9 µM) | 0.12 | 2.12 | 69 | 9.6 (≈ 29.1 µM) | 0 | 5.91 | 4.59 (≈ 13.9 µM)
C[C@@H](O)[C@H]1C(=O)N2C(C(=O)O)=C(SC(=S)N(C)CCO)[C@H](C)[C@H]12 | 1.36 | 6.25 (≈ 17.3 µM) | 0.78 (≈ 2.16 µM) | > 25 | 6.25 (≈ 17.3 µM) | 0.025 (≈ 0.0694 µM) | 3.13 (≈ 8.68 µM) | 6.25 (≈ 17.3 µM) | 0.53 | 1.33 | 58 | 3.8 (≈ 10.5 µM) | 0 | 4.8 | 4.36 (≈ 12.1 µM)
C[C@@H](O)[C@H]1C(=O)N2C(C(=O)O)=C(SC(=S)N3CCN(C)CC3)[C@H](C)[C@H]12 | 1.53 | 6.25 (≈ 16.2 µM) | 1.56 (≈ 4.05 µM) | > 25 | 3.13 (≈ 8.12 µM) | 0.025 (≈ 0.0648 µM) | 3.13 (≈ 8.12 µM) | 6.25 (≈ 16.2 µM) | – | – | – | – | – | – | –
CCN(CC)C(=S)SC1=C(C(=O)O)N2C(=O)[C@H]([C@@H](C)O)[C@H]2[C@H]1C | 2.51 | 12.5 (≈ 34.9 µM) | 25 (≈ 69.7 µM) | 25 (≈ 69.7 µM) | 3.13 (≈ 8.73 µM) | 0.025 (≈ 0.0697 µM) | 3.13 (≈ 8.73 µM) | 3.13 (≈ 8.73 µM) | – | – | – | – | – | – | –
C[C@@H](O)[C@H]1C(=O)N2C(C(=O)O)=C(SC(=S)N(C)c3ccccc3)[C@H](C)[C@H]12 | 2.29 | 6.25 (≈ 15.9 µM) | > 25 | > 25 | 1.56 (≈ 3.97 µM) | 0.05 (≈ 0.127 µM) | 1.56 (≈ 3.97 µM) | 3.13 (≈ 7.97 µM) | – | – | – | – | – | – | –
C[C@@H](O)[C@H]1C(=O)N2C(C(=O)O)=C(SC(=O)N3CCCC3)[C@H](C)[C@H]12 | 0.65 | – | – | – | 25 (≈ 73.4 µM) | 0.05 (≈ 0.147 µM) | 25 (≈ 73.4 µM) | 25 (≈ 73.4 µM) | – | – | – | – | – | – | –
CCN(C)C(=S)SC1=C(C(=O)O)N2C(=O)[C@H]([C@@H](C)O)[C@H]2[C@H]1C | 2.26 | 6.25 (≈ 18.1 µM) | 6.25 (≈ 18.1 µM) | > 25 | 3.13 (≈ 9.09 µM) | 0.025 (≈ 0.0726 µM) | 3.13 (≈ 9.09 µM) | 3.13 (≈ 9.09 µM) | – | – | – | – | – | – | –
C[C@@H](O)[C@H]1C(=O)N2C(C(=O)O)=C(SC(=S)N3CCCC3)C[C@H]12 | 11.7 | – | – | – | 12.5 (≈ 36.5 µM) | 0.025 (≈ 0.073 µM) | 6.25 (≈ 18.3 µM) | 25 (≈ 73 µM) | – | – | – | – | – | – | –
C[C@@H](O)[C@H]1C(=O)N2C(C(=O)[O-])=C(SC(=S)N3CC[N+](C)(C)CC3)[C@H](C)[C@H]12 | 0.11 | 1.56 (≈ 3.9 µM) | 0.1 (≈ 0.25 µM) | > 25 | 3.13 (≈ 7.83 µM) | 0.012 (≈ 0.03 µM) | 3.13 (≈ 7.83 µM) | 12.5 (≈ 31.3 µM) | – | – | – | – | – | – | –
